Data as given in patent publication US20230190761A1, “METHYLENE BLUE STABILIZED MRNA COMPOSITIONS” (ModernaTX, Inc., priority 2020, published 2023).
“And” between values parts separate entries of the source, which are not always exact repeats. Identical values can stand only once.

Assays:
Type in all cases: physicochemical
[1] = tested on: mRNA within LNP compositions; test: mRNA integrity by fragmentation analysis after 10 days at 5, 25 or 40° C. with methylene blue; conditions: for mRNA stability by fragmentation analysis: 0.1-6 mM methylene blue
Description: mRNA purity can be determined by reverse phase high-performance liquid chromatography (RP-HPLC) size based separation. This method can be used to assess mRNA integrity by a length-based gradient RP separation and UV detection of RNA at 260 nm. As used herein “main peak” or “main peak purity” refers to the RP-HPLC signal detected from mRNA that corresponds to the full size mRNA molecule loaded within a given LNP formulation. mRNA purity can also be assessed by fragmentation analysis. Fragmentation analysis (FA) is a method by which nucleic acid (e.g., mRNA) fragments can be analyzed by capillary electrophoresis. Fragmentation analysis involves sizing and quantifying nucleic acids (e.g., mRNA), for example by using an intercalating dye coupled with an LED light source. Such analysis may be completed, for example, with a Fragment Analyzer from Advanced Analytical Technologies, Inc.
In view of the surprising and somewhat counter-intuitive finding that methylene blue enhanced stability of mRNA-LNP formulations, additional experimentation was conducted. The stability of mRNA-LNPs in the presence of increasing levels of methylene blue was investigated upon incubation at 5° C., 25° C. or 40° C. for 10 days. […] In addition to chemical stability, a careful examination of the possible impact of methylene blue on the physical state of the LNP was performed using dynamic light scattering (DLS). This technique is exquisitely sensitive to tiny changes in hydrodynamic nanoparticle size, especially with respect to the formation of larger aggregates known to be a common physical degradation mode of many LNPs.

[2] = LC/MS analysis of PEG-lipid stability in presence of methylene blue
Description: This example describes the effects of methylene blue on lipid components of LNP formulations. PEG-lipid is known to be susceptible to oxidative degradation. Given the degradation mechanism attributed to methylene blue, an accelerated study was performed to evaluate whether the presence of methylene blue adversely affects PEG-lipid stability. Lyso-PEG-DMG is considered a primary bellwether of PEG-lipid degradation. As such, its concentration in samples was measured using liquid chromatography/mass spectrometry (LC/MS) after storage of LNPs at room temperature (FIG. 7A) or 5° C. (FIG. 7B) in the presence of a range of methylene blue concentrations.

mRNA in LNP formulations = test: mRNA-LNP purity by RP-HPLC and fragment analysis, 40° C. 12 days, light vs dark
Description: As detailed in this example, samples are labeled as follows: A=0 mM methylene blue; B=0.5 mM methylene blue; C=1 mM methylene blue; D=1.5 mM methylene blue; and E=2.0 mM methylene blue.
After incubating samples at 40° C. for 12 days, either protected from light or unprotected, fragmentation analysis was conducted to evaluate the presence of lipid-RNA adducts.

lyophilized mRNA-LNP = test: Stability of lyophilized mRNA-LNP with methylene blue (RP-HPLC); conditions: lyophilized mRNA-LNP powder with 1 mM methylene blue, 1 week at 40° C.
Description: To evaluate whether methylene blue could have a stabilization effect on lyophilized powder formulations of mRNA-LNP, studies were performed to compare the effect of 1 mM methylene blue on loss of purity of a lyophilized mRNA-LNP. In this experiment methylene blue was added to LNP immediately prior to lyophilization. The resulting powders (shown in FIG. 15) were stored at −80° C., 5° C. or 40° C. with or without methylene blue.

mRNA-LNP formulations = test: mRNA-LNP stability in differing buffer conditions with or without methylene blue (fragmentation analysis and RP-HPLC); conditions: 150 mM NaCl, 2 mM MB
Description: This example discusses stabilization effects of methylene blue on mRNA-LNP formulations in varying buffer conditions. To match experiments conducted on lyophilized products, which were reconstituted in saline, and refrigerated/frozen formulations in TRIS-Sucrose, two buffers across the range of pH were tested. Sodium chloride was added to mimic saline, as it can cause methylene blue to crash out of solution.

mRNA = test: Differential scanning calorimetry of mRNA with methylene blue
Description: To test the effect of methylene blue on folding and intramolecular hybridization of mRNA, differential scanning calorimetry (DSC) was conducted on samples of mRNA containing no methylene blue, 50 μM methylene blue, or 100 μM methylene blue. […] At higher methylene blue concentrations (approximately 0.5 mM), precipitation of mRNA occurs, but at the concentrations of this experiment the mRNA-dye complex remains soluble. It is notable that the sharp transitions at ˜74° C. and 80° C. are not affected by the presence of dye, whereas there is a massive effect on the least thermally stable transitions occurring in the <60° C. region, shown by the large rightward shift of the curves with the addition of methylene blue. By comparison, therapeutic protein stabilization strategies commonly involve screening of excipient effects on thermal unfolding, however, the thermal shifts observed for optimized protein formulations typically involve thermal shifts of only a few degrees.
The DSC thermogram show the effects on the thermal unfolding profile of mRNA in the presence or absence of […] methylene blue. When the methylene blue-containing sample was dialyzed to remove dye, the resulting thermogram corresponded closely to that of the original no-dye sample. […] All the fine details of the thermal unfolding profile were restored post-dialysis, indicating a restoration of the original structure-function of the mRNA.

[3] = tested on: lipid nanoparticles (LNP); test: Permeation of phenothiazinium dyes into LNP and binding to encapsulated mRNA; conditions: optical spectroscopic studies, Cryo-EM, DLS, isothermal titration calorimetry
Description: This example describes phenothiazinium dyes which interact with mRNA and their impact on LNP formulations. […] These interpretations were made based on extensive optical spectroscopic studies, Cryo-EM, dynamic light scattering (DLS) and isothermal titration calorimetry studies.

Which “mRNA stability by fragmentation analysis” value ([1]; 5° C.) does the source give for CN(C)c1ccc2nc3ccc(N(C)C)cc3[s+]c2c1 [methylene blue] here?
Its value is “slight trend in the opposite direction”.

And the “methylene blue concentration range at which stabilizing effect reached a maximum” value ([1]; 40° C., fragmentation analysis)?
Its value is 1.5 to 3.0 mM.

And the “mRNA stability by fragmentation analysis” value ([1]; room temperature)?
Its value is “protective effect”.

And the “total quantity of PEG-lipid (LC/MS)” value ([2]; 0, 0.1, 0.5 and 1 mM methylene blue, 1 week at room temperature or 5° C.)?
The value was “no effect on the total quantity of PEG-lipid present”.

What about the “Lyso-PEG-DMG signal (LC/MS)” value ([2]; 0 to 1.0 mM methylene blue, LNPs at room temperature or 5° C., 1 week) of the same compound?
Its value is “no difference in Lyso-PEG-DMG signal was detected”.

And the “mRNA stability by RP-HPLC and fragmentation analysis” value (mRNA in LNP formulations; 12 days, protected from light, 0.5-2.0 mM methylene blue, vs −80 C controls)?
The value was “enhanced the stability of mRNA in LNP formulations”.

And the “mRNA degradation by RP-HPLC and fragmentation analysis” value (mRNA in LNP formulations; 12 days, unprotected from light, samples B-E (0.5-2.0 mM methylene blue))?
Its value is “more mRNA degradation than samples stored protected from light or those without methylene blue”.

What about the adduct formation (mRNA in LNP formulations; protected from light) of the same compound?
The adduct formation was “did not have a detrimental effect on adduct formation”.

And the main peak purity (lyophilized mRNA-LNP)?
The main peak purity was 30% and 33%.

What about the Adduct (mRNA-LNP formulations; pH 7, TRIS-sucrose buffer) of the same compound?
The Adduct was 17.6%.

And the Fragmentation (mRNA-LNP formulations; pH 7, TRIS-sucrose buffer)?
Its Fragmentation is 16.0%.

And the Main peak (mRNA-LNP formulations; pH 7, TRIS-sucrose buffer)?
The Main peak was 66.4%.

What about the Adduct (mRNA-LNP formulations; pH 7, phosphate buffer) of the same compound?
Its Adduct is 23.9%.

And the Fragmentation (mRNA-LNP formulations; pH 7, phosphate buffer)?
The Fragmentation was 17.1%.

And the Main peak (mRNA-LNP formulations; pH 7, phosphate buffer)?
Its Main peak is 59.1%.

And the Adduct (mRNA-LNP formulations; pH 7.5, TRIS-sucrose buffer)?
Its Adduct is 16.4%.

And the Fragmentation (mRNA-LNP formulations; pH 7.5, TRIS-sucrose buffer)?
The Fragmentation was 19.5%.

What about the Main peak (mRNA-LNP formulations; pH 7.5, TRIS-sucrose buffer) of the same compound?
Its Main peak is 64.1%.

And the Adduct (mRNA-LNP formulations; pH 7.5, phosphate buffer)?
Its Adduct is 22.0%.

What about the Fragmentation (mRNA-LNP formulations; pH 7.5, phosphate buffer) of the same compound?
Its Fragmentation is 18.7%.

And the Main peak (mRNA-LNP formulations; pH 7.5, phosphate buffer)?
The Main peak was 59.4%.

What about the Adduct (mRNA-LNP formulations; pH 8, TRIS-sucrose buffer) of the same compound?
The Adduct was 15.9%.

What about the Fragmentation (mRNA-LNP formulations; pH 8, TRIS-sucrose buffer) of the same compound?
The Fragmentation was 22.9%.

What about the Main peak (mRNA-LNP formulations; pH 8, TRIS-sucrose buffer) of the same compound?
The Main peak was 61.2%.

What about the Adduct (mRNA-LNP formulations; pH 8, phosphate buffer) of the same compound?
Its Adduct is 22.7%.

What about the Fragmentation (mRNA-LNP formulations; pH 8, phosphate buffer) of the same compound?
The Fragmentation was 25.0%.

What about the Main peak (mRNA-LNP formulations; pH 8, phosphate buffer) of the same compound?
The Main peak was 52.2%.

And the Adduct (mRNA-LNP formulations; pH 8.5, TRIS-sucrose buffer)?
Its Adduct is 13.3%.

What about the Fragmentation (mRNA-LNP formulations; pH 8.5, TRIS-sucrose buffer) of the same compound?
Its Fragmentation is 32.5%.

What about the Main peak (mRNA-LNP formulations; pH 8.5, TRIS-sucrose buffer) of the same compound?
The Main peak was 54.1%.

What about the “methylene blue concentration with appreciable impact to mRNA conformational stability (DSC)” value (mRNA) of the same compound?
Its value is roughly 10 µM.

What about the “methylene blue concentration giving dramatic global changes in overall mRNA structure (DSC)” value (mRNA; 0.3 μM mRNA, 32.5 mM sodium acetate, pH 5.0) of the same compound?
The value was no less than 367.8 µM.

What about the “folded stability of mRNA (DSC thermogram)” value (mRNA; 50 μM or 100 μM methylene blue vs no methylene blue) of the same compound?
Its value is “enormous enhancement of folded stability”.

And the “reversibility of methylene blue binding to mRNA (DSC after dialysis)” value (mRNA; 100 mM methylene blue, dialyzed to remove dye)?
The value was “reversible”.

And the “lowest methylene blue concentration affecting the folded structure of mRNA (DSC)” value (mRNA; mRNA at 0.3 μM)?
Its value is 11.3 µM.

What about the “methylene blue concentration at which precipitation of mRNA occurs” value (mRNA; mRNA in solution) of the same compound?
The value was “approximately 0.5 mM”.

What about the “permeation of lipid nanoparticles and binding to encapsulated mRNA” value [3] of the same compound?
Its value is “does not permeate LNPs to the same extent as certain other phenothiazinium dyes”.
